By IC50 is commonly meant the point on the concentration scale where inhibition reaches its midpoint.

Where “and” joins values, the source holds several entries; their conditions need not be identical. Equal entries are not always repeated. Where two headings read alike, the source gives them in different places.

Results on 24 compounds are retold here after patent US20060276464A1, “Diarylsulfone sulfonamides and use thereof” (Wyeth, priority 2005, published 2006).

Assay [1] has as its target T1, SFRP-1 (Homo sapiens, UniProt Q8N474).
T1 sequence (Q8N474 32-314): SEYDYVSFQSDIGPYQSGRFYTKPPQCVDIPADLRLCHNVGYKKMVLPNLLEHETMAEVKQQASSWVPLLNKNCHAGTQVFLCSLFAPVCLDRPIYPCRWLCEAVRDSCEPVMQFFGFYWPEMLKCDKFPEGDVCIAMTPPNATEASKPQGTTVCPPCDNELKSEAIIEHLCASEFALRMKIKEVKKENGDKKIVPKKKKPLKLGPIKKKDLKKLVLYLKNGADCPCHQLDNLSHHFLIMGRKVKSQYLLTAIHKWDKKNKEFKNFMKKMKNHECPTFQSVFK
As to the kind of experiment: Fluorescence polarization binding assay (competitive displacement of a probe compound from SFRP-1).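 Also: test compound competes with a fluorescent probe held by SFRP-1, seen as a drop in probe anisotropy after incubation in darkness, with anisotropy as function of rising compound dose.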 As to conditions: fluorescence anisotropy, 45 nM SFRP-1, 20 nM probe. In general terms: Polarisation of emitted light reports the rotation of a fluorescent probe.

The target of assay [2] is T1, SFRP-1. As to the kind of experiment: Cell-based assay for in vitro measurement of SFRP-1/SARP2 antagonist activity (U2OS cells co-transfected with 16x TCF-tk-Luciferase reporter, Wnt and hSFRP-1).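 Also: U2OS cells co-transfected with a TCF-tk luciferase reporter, a Wnt vector, hSFRP-1 or empty vector and CMV-βgal, luciferase luminescence read in cell lysates alongside βgal activity.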 Particulars: U2OS. In general terms: A reporter such as luciferase makes a cellular process visible.
The mark [3] stands for this setting: read-out: Fold Induction with SFRP-1, Conc 15 μM, with SFRP-1, fold induction over SFRP-1 control, single dose.
Where [4] appears, read: read-out: Fold Induction without SFRP-1, Conc 15 μM, without SFRP-1, single dose.
Where [5] appears, read: read-out: Fold Induction with SFRP-1, Conc 15 μM, single dose, luciferase reporter, fold induction over SFRP-1 control, cells with SFRP-1.
Where [6] appears, read: read-out: Fold Induction without SFRP-1, Conc 15 μM, single dose, luciferase reporter, cells without SFRP-1 (specificity control).

`CC(C)c1ccc(S(=O)(=O)c2cccc3c(N(C)C)cccc23)cc1S(=O)(=O)NCCc1ccccn1` [Example 474, 5-{[5-(dimethylamino)-1-naphthyl]sulfonyl}-2-isopropyl-N-(2-pyridin-2-ylethyl)benzenesulfonamide] registered a half-inhibitory concentration (IC50) in assay [1] of 800 nM. Moreover, the fold induction at 15 µM came to 1.4 in assay [2] (setting [3]) and 1 in assay [2] (setting [4]).

Consider `Cc1ccc(S(=O)(=O)c2ccccc2)cc1S(=O)(=O)NC1CCN(C(=O)c2ccc(C#N)cc2)CC1` [Example 476, N-[1-(4-cyanobenzoyl)piperidin-4-yl]-2-methyl-5-(phenylsulfonyl)benzenesulfonamide], for which, in assay [1], the IC50 is 1400 nM. The results for the fold induction at 15 µM in assay [2] (setting [3]) and in assay [2] (setting [4]) were 2 and 1, respectively.

In the case of `Cc1ccc(S(=O)(=O)c2ccccc2)cc1S(=O)(=O)NC1CCN(C(=O)c2cccc(C#N)c2)CC1` [Example 477, N-[1-(3-cyanobenzoyl)piperidin-4-yl]-2-methyl-5-(phenylsulfonyl)benzenesulfonamide], the IC50 in assay [1] is 2200 nM. Further, the results for the fold induction at 15 µM in assay [2] (setting [3]) and in assay [2] (setting [4]) were 2.1 and 1, respectively.

`Cc1ccc(S(=O)(=O)c2ccccc2)cc1S(=O)(=O)NC1CCN(S(C)(=O)=O)CC1` [Example 478, 2-methyl-N-[1-(methylsulfonyl)piperidin-4-yl]-5-(phenylsulfonyl)benzenesulfonamide] registered a half-inhibitory concentration (IC50) in assay [1] of 1300 nM. For the same compound, the values for the fold induction at 15 µM in assay [2] (setting [3]) and in assay [2] (setting [4]) were 2.3 and 1, respectively.

With `CC(=O)Nc1ccc(C(=O)N2CCC(NS(=O)(=O)c3cc(S(=O)(=O)c4ccccc4)ccc3C)CC2)cc1` [Example 480, N-(4-{[4-({[2-methyl-5-(phenylsulfonyl)phenyl]sulfonyl}amino)piperidin-1-yl]carbonyl}phenyl)acetamide], the half-maximal inhibitory concentration (IC50) in assay [1] came to 2900 nM. For the same compound, the results for the fold induction at 15 µM in assay [2] (setting [3]) and in assay [2] (setting [4]) were 1.7 and 1, respectively.

As to `Cc1ccc(S(=O)(=O)c2ccccc2)cc1S(=O)(=O)NC1CCN(S(=O)(=O)c2cn(C)cn2)CC1` [Example 481, 2-methyl-N-{1-[(1-methyl-1H-imidazol-4-yl)sulfonyl]piperidin-4-yl}-5-(phenylsulfonyl)benzenesulfonamide], in assay [1], the half-inhibitory concentration (IC50) turned out to be 1200 nM. Further, the fold induction at 15 µM amounted to 1.8 in assay [2] (setting [3]) and 1 in assay [2] (setting [4]).

In turn, `Cc1ccc(S(=O)(=O)c2ccccc2)cc1S(=O)(=O)NC1CCN(S(=O)(=O)c2cccs2)CC1` [Example 482, 2-methyl-5-(phenylsulfonyl)-N-[1-(2-thienylsulfonyl)piperidin-4-yl]benzenesulfonamide] yielded a half-maximal inhibitory concentration (IC50) in assay [1] of 800 nM. Moreover, the fold induction at 15 µM in assay [2] (setting [3]) stood at 3.2; in assay [2] (setting [4]) it was 1.1.

In the case of `Cc1ccc(S(=O)(=O)c2ccccc2)cc1S(=O)(=O)NC1CCN(C(=O)c2ccc3c(c2)OCO3)CC1` [Example 484, N-[1-(1,3-benzodioxol-5-ylcarbonyl)piperidin-4-yl]-2-methyl-5-(phenylsulfonyl)benzenesulfonamide], the 50% inhibitory concentration (IC50) in assay [1] came out at 1500 nM. Further, the figures for the fold induction at 15 µM in assay [2] (setting [3]) and in assay [2] (setting [4]) were 2.4 and 1.1, respectively.

On to `Cc1ccc(S(=O)(=O)c2ccccc2)cc1S(=O)(=O)NC1CCN(C(=O)c2ccno2)CC1` [Example 485, N-[1-(isoxazol-5-ylcarbonyl)piperidin-4-yl]-2-methyl-5-(phenylsulfonyl)benzenesulfonamide], for which the concentration for half-maximal inhibition (IC50) in assay [1] was determined as 1700 nM. Besides, the values for the fold induction at 15 µM in assay [2] (setting [5]) and in assay [2] (setting [6]) were 2.5 and 1, respectively.

In assay [1], `Cc1ccc(S(=O)(=O)c2ccccc2)cc1S(=O)(=O)NC1CCN(C(=O)CN(C)C)CC1` [Example 486, N-[1-(N,N-dimethylglycyl)piperidin-4-yl]-2-methyl-5-(phenylsulfonyl)benzenesulfonamide] showed an IC50 of 5000 nM. For the same compound, the values for the fold induction at 15 µM in assay [2] (setting [5]) and in assay [2] (setting [6]) were 2.1 and 1.1, respectively.

In assay [1], `C#CCOC(=O)N1CCC(NS(=O)(=O)c2cc(S(=O)(=O)c3ccccc3)ccc2C)CC1` [Example 487, prop-2-yn-1-yl 4-({[2-methyl-5-(phenylsulfonyl)phenyl]sulfonyl}amino)piperidine-1-carboxylate] gave an IC50 of 500 nM. The fold induction at 15 µM in assay [2] (setting [5]) is 2.1; in assay [2] (setting [6]), 1.1.

In assay [1], `COC(=O)N1CCC(NS(=O)(=O)c2cc(S(=O)(=O)c3ccccc3)ccc2C)CC1` [Example 488, methyl 4-({[2-methyl-5-(phenylsulfonyl)phenyl]sulfonyl}amino)piperidine-1-carboxylate] showed a concentration for half-maximal inhibition (IC50) of 2100 nM. Also, the figures for the fold induction at 15 µM in assay [2] (setting [5]) and in assay [2] (setting [6]) were 2 and 0.9, respectively.

With `COc1ccccc1OC(=O)N1CCC(NS(=O)(=O)c2cc(S(=O)(=O)c3ccccc3)ccc2C)CC1` [Example 489, 2-methoxyphenyl 4-({[2-methyl-5-(phenylsulfonyl)phenyl]sulfonyl}amino)piperidine-1-carboxylate], the IC50 in assay [1] worked out at 1000 nM. In addition, the values for the fold induction at 15 µM in assay [2] (setting [5]) and in assay [2] (setting [6]) were 2.4 and 1.1, respectively.

Take `Cc1ccc(S(=O)(=O)c2ccccc2)cc1S(=O)(=O)NC1CCN(C(=O)NC(C)(C)C)CC1` [Example 490, N-(tert-butyl)-4-({[2-methyl-5-(phenylsulfonyl)phenyl]sulfonyl}amino)piperidine-1-carboxamide]: in assay [1], the IC50 turned out to be 2300 nM. Besides, the fold induction at 15 µM turned out to be 1.7 in assay [2] (setting [5]) and 1 in assay [2] (setting [6]).

`Cc1ccc(S(=O)(=O)c2ccccc2)cc1S(=O)(=O)NC1CCN(C(=O)c2ccc3ccccc3c2)CC1` [Example 496, 2-methyl-N-[1-(2-naphthoyl)piperidin-4-yl]-5-(phenylsulfonyl)benzenesulfonamide] returned an IC50 in assay [1] of 1400 nM. Besides, the figures for the fold induction at 15 µM in assay [2] (setting [5]) and in assay [2] (setting [6]) were 1.9 and 1, respectively.

Take `Cc1ccc(S(=O)(=O)c2ccccc2)cc1S(=O)(=O)NC1CCN(C(=O)c2cccs2)CC1` [Example 497, 2-methyl-5-(phenylsulfonyl)-N-[1-(2-thienylcarbonyl)piperidin-4-yl]benzenesulfonamide]: the 50% inhibitory concentration (IC50) in assay [1] was 1300 nM and 1700 nM. The fold induction at 15 µM was found to be 2.4 in assay [2] (setting [5]) and 1 in assay [2] (setting [6]).

Regarding `Cc1ccc(S(=O)(=O)c2ccccc2)cc1S(=O)(=O)NC1CCN(C(=O)OCC(C)C)CC1` [Example 498, isobutyl 4-({[2-methyl-5-(phenylsulfonyl)phenyl]sulfonyl}amino)piperidine-1-carboxylate], the half-inhibitory concentration (IC50) in assay [1] was 2200 nM. Further, the fold induction at 15 µM in assay [2] (setting [5]) turned out to be 1.8; in assay [2] (setting [6]), 1.

The compound `Cc1ccc(S(=O)(=O)c2ccccc2)cc1S(=O)(=O)NC1CCN(C(=O)c2ccc(N(C)C)cc2)CC1` [Example 499, N-{1-[4-(dimethylamino)benzoyl]piperidin-4-yl}-2-methyl-5-(phenylsulfonyl)benzenesulfonamide] yielded an IC50 in assay [1] of 900 nM. For the same compound, the values for the fold induction at 15 µM in assay [2] (setting [5]) and in assay [2] (setting [6]) were 2.4 and 1, respectively.

Compound `CCNC(=O)N1CCC(NS(=O)(=O)c2cc(S(=O)(=O)c3ccccc3)ccc2C)CC1` [Example 501, N-ethyl-4-({[2-methyl-5-(phenylsulfonyl)phenyl]sulfonyl}amino)piperidine-1-carboxamide] yielded an IC50 in assay [1] of 4000 nM. Besides, the fold induction at 15 µM turned out to be 2.5 in assay [2] (setting [5]) and 0.9 in assay [2] (setting [6]).

Take `Cc1ccc(S(=O)(=O)c2ccccc2)cc1S(=O)(=O)NC1CCN(C(=O)N2CCOCC2)CC1` [Example 502, 2-methyl-N-[1-(morpholin-4-ylcarbonyl)piperidin-4-yl]-5-(phenylsulfonyl)benzenesulfonamide]: the half-maximal inhibitory concentration (IC50) in assay [1] was found to be 3000 nM. Also, the figures for the fold induction at 15 µM in assay [2] (setting [5]) and in assay [2] (setting [6]) were 2.9 and 1, respectively.

`Cc1ccc(S(=O)(=O)c2ccccc2)cc1S(=O)(=O)NC1CCN(C(=O)N(C)C)CC1` [Example 503, N,N-dimethyl-4-({[2-methyl-5-(phenylsulfonyl)phenyl]sulfonyl}amino)piperidine-1-carboxamide] gave an IC50 in assay [1] of 2400 nM. The fold induction at 15 µM was 2.7 in assay [2] (setting [5]) and 0.9 in assay [2] (setting [6]).

On to `Cc1ccc(S(=O)(=O)c2ccccc2)cc1S(=O)(=O)NC1CCN(C(=O)CC(C)(C)C)CC1` [Example 504, N-[1-(3,3-dimethylbutanoyl)piperidin-4-yl]-2-methyl-5-(phenylsulfonyl)benzenesulfonamide], for which the IC50 in assay [1] worked out at 4000 nM. For the same compound, the fold induction at 15 µM in assay [2] (setting [5]) came out at 2.2; in assay [2] (setting [6]) it was 1.

`CC(C)c1ccc(S(=O)(=O)c2cc(Cl)cc(Cl)c2)cc1S(=O)(=O)NCCc1ccccn1` [Example 505, 5-[(3,5-dichlorophenyl)sulfonyl]-2-isopropyl-N-(2-pyridin-2-ylethyl)benzenesulfonamide]: the IC50 in assay [1] is 700 nM. Also, the fold induction at 15 µM in assay [2] (setting [5]) came to 2.3; in assay [2] (setting [6]) it was 1.

`CC(C)c1ccc(S(=O)(=O)c2cccc(OC(F)(F)F)c2)cc1S(=O)(=O)NCCc1ccccn1` [Example 506, 2-isopropyl-N-(2-pyridin-2-ylethyl)-5-{[3-(trifluoromethoxy)phenyl]sulfonyl}benzenesulfonamide] displayed an IC50 in assay [1] of 2400 nM. Moreover, the values for the fold induction at 15 µM in assay [2] (setting [5]) and in assay [2] (setting [6]) were 2.7 and 1, respectively.
